Columns and labels:
Assay in all cases: pIC50, kinobeads binding competition
Conditions in all cases: cell material: Jurkat lysate
BLK = BLK (UniProt P51451)
DYRK2 = target: T1, DYRK2 (UniProt Q92630)
T1 sequence (whole entry): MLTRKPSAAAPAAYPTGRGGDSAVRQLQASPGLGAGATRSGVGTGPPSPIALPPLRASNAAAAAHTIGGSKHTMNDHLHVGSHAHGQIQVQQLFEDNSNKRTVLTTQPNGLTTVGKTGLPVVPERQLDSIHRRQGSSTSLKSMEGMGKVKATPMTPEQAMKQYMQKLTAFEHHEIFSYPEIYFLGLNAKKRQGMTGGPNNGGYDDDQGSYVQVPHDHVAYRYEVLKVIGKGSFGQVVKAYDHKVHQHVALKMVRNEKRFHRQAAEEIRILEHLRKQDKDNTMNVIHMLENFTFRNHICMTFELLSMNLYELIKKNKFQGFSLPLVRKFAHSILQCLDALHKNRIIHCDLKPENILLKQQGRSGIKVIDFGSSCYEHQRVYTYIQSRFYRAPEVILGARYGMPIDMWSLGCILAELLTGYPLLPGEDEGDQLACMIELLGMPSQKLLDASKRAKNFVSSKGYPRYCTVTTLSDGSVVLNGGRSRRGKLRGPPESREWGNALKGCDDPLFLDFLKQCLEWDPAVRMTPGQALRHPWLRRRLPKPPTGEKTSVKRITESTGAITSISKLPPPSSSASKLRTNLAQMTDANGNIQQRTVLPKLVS

UniProt Q13188 = target: T2, UniProt Q13188
T2 sequence (whole entry): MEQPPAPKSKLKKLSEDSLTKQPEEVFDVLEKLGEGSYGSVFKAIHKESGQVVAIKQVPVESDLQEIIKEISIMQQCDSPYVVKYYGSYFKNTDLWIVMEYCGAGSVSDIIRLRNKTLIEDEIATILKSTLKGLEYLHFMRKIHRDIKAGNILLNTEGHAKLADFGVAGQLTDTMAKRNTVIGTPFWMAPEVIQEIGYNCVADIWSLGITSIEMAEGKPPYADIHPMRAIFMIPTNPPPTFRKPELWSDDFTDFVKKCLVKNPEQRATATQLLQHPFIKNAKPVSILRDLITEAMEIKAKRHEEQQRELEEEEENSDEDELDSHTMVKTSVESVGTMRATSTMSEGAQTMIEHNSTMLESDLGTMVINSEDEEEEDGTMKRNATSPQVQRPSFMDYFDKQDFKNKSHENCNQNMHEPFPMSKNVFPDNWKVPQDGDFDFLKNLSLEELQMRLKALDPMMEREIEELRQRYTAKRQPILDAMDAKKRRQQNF

UniProt Q8IW41 = target: T3, UniProt Q8IW41
T3 sequence (whole entry): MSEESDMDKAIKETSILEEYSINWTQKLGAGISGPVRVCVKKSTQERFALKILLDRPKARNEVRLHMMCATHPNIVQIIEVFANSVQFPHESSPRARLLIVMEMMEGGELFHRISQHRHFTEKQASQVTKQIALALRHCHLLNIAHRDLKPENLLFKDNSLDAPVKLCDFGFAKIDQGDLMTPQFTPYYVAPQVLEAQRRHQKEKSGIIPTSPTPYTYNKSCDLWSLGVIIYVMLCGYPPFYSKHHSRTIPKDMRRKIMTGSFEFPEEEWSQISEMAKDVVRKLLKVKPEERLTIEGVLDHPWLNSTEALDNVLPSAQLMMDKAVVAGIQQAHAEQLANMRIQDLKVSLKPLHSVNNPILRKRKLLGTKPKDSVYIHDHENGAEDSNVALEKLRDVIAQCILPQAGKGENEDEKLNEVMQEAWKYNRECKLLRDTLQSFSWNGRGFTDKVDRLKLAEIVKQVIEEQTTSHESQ

ZAP70 = target: T4, ZAP70 (UniProt P43403)
T4 sequence (whole entry): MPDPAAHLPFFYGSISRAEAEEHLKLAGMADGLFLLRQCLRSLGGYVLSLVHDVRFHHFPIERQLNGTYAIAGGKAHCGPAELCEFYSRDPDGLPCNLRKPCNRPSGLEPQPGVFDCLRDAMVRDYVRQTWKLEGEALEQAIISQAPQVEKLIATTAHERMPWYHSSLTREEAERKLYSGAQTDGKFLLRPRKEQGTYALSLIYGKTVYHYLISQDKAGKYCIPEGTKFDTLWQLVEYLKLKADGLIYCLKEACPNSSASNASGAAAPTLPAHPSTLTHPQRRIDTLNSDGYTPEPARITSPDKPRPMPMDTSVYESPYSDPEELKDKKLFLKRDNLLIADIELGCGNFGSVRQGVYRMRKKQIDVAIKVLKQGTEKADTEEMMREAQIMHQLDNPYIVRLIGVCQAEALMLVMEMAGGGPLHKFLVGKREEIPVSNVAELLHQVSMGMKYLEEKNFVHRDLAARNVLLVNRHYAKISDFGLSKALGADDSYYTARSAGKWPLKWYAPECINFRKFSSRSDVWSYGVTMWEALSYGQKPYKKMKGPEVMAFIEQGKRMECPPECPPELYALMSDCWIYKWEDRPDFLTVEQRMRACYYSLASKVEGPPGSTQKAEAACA

Measured: pIC50

Chain of BLK (P51451 whole entry, looked up): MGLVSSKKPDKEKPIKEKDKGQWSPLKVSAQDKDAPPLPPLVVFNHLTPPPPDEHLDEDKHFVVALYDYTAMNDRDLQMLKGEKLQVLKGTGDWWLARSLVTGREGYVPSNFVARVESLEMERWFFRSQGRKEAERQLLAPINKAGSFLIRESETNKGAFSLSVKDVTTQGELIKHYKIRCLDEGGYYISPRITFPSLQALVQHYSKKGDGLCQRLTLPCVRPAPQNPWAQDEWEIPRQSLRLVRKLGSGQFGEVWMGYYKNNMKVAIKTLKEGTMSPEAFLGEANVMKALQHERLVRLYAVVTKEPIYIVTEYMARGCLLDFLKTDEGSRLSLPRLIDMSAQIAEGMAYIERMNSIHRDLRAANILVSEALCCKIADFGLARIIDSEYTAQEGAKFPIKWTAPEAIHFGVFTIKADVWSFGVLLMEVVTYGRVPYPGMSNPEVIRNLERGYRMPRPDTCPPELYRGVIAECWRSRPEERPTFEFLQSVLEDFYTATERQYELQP

CCc1cnn2c(NCc3ccc[n+]([O-])c3)cc(N3CCCC[C@H]3CCO)nc12 [dinaciclib]
< 4.52: all assays above

Source: the supplement of paper PMC12076712
